Here are results for one molecule from US5385931A, “Sulfonamides derived from benzocyclic or benzoheterocyclic acids, their preparation and application in therapeutics” (Pierre Fabre Medicament, priority 1989, dated 1995).

The subject of series [1] is blood platelet aggregation induced by U.46619. Kind of series: In vitro rabbit platelet aggregation induced by U.46619. Format: cell-based, New Zealand rabbits. The note with it: Oryctolagus cuniculus; rabbit platelet-rich plasma; U.46619 1.05 to 2.44 micromoles; pre-incubated 1 min at 37° C., pH 7.4. As for the experimental part: (§1) Blood is taken from white male New Zealand rabbits which have not received any treatment capable of disrupting the platelet functions.
(§2) After having allowed the first drops to flow freely, the blood is collected in plastic tubes containing 3.8% (wt/v) trisodium citrate 5.5 H2 O, the citrate/blood ratio being 1 volume of citrate per 9 volumes of blood.
(§3) The blood platelet aggregation study is carried out starting from plasmas rich in platelets obtained by centrifuging the above blood samples at low speed. It is measured with the aid of a Mustard aggregometer at a wavelength of 609 nm with a stirring speed of 1,100 revolutions/min.
(§4) The products to be studied are dissolved in polyethylene glycol 300 and pre-incubated for 1 min at 37° C. under a volume of 10 microliters,in a mixture of 300 microliters of plasma rich in platelets and 90 microliters of Tyrode's solution without calcium, pH=7.4. (Corresponding controls are produced by pre-incubating the vehicle on its own instead of solutions of products to be studied).
(§5) The blood platelet aggregation is initiated by the addition either of U.46619 (final concentrations: 1.05 to 2.44 micromoles) or of arachidonic acid (final concentrations: 50 to 100 micromoles).
(§6) Starting from the parameter of the maximum percentage aggregation, the anti-aggregant activity of a product is calculated using the formula: [formula]
One curve: anti-aggregant activity=f (final concentration) is plotted for each product and the 50% inhibitory concentration determined from the graph.
In the case of aggregation with U.46619, the IC50 are given in Table I for compounds 1, 2, 3, 7 and 11 by way of non-limiting example: […]

Series [2] has as its system blood platelet aggregation induced by arachidonic acid. Kind of series: In vitro rabbit platelet aggregation induced by arachidonic acid. The format is cell-based, New Zealand rabbits. The note with it: arachidonic acid 50 to 100 micromoles. As for the experimental part: as §1, §2, §3, §4, §5, §6
The percentage inhibition of the aggregation with arachidonic acid is given in Table II for compounds 2 and 3 by way of non-limiting examples: […]

Series [3] relates to platelet aggregation induced by U.46619. Kind of series: Ex vivo inhibition of U.46619-induced platelet aggregation after oral administration in rabbits. On the set-up: species or system New Zealand rabbits. To be noted: t=+90 min relative to control curve at t=0. As for the experimental part:
b) Ex vivo action: inhibition of anti-aggregant effects using U.46619 in rabbits.
Because of their powerful activity in vitro, the anti-aggregant effects ex vivo were studied in rabbits. The substances of general formula I, which are the subject of the present invention, are administered orally as a 1% suspension in carboxymethylcellulose to natural male New Zealand rabbits weighing 2.5 to 3 kg after going without nourishment for about 18 h. Blood samples were taken by cardiac puncture at time 0 and after 90 min. The aggregant U.46619 was used under the same conditions as above and the measurement of the aggregation was carried out using the same technique.
The results are expressed in Table III in terms of percentage inhibition of the maximum amplitude of the aggregation curve at t=+90 min relative to the control curve at t=0 and are given for compounds 2 and 3 by way of non-limiting example: […]

The test system of series [4] is conventional mice. Kind of series: Toxicology, intraperitoneal, mice. The note with it: 500 mg per kilo intraperitoneally. Format: in vivo. As for the experimental part:
The chemical compounds described above were subjected to toxicity checks. This study was carried out on conventional mice weighing from 20 to 22 g. The compounds of general formula I were administered intraperitoneally.

Series [5] can be described thus: Solubility in DMSO. The format is physicochemical.

For `O=C(O)C1Cc2cc(C(O)CNS(=O)(=O)c3ccc(Cl)cc3)ccc2O1` (stereo not drawn) [Compound 3, 5-(2-parachlorobenzenesulphonamido-1-hydroxyethyl)-2,3-dihydro-2-benzofurancarboxylic acid], the IC50 in series [1] is 5 µM. Also, the inhibition at 100 µM in series [2] (Oryctolagus cuniculus, Platelet, final concentration of compound 10^-4 M) was -86%. Also, the inhibition at 10 µM in series [2] (Oryctolagus cuniculus, Platelet, final concentration of compound 10^-5 M) is -7%. Further, in series [2] (final concentration of compound 5.10^-5 M), the “% inhibition of platelet aggregation” value is reported as -78%. The “% inhibition of aggregation” value in series [3] (5 mg/kg orally) was -43%. Moreover, the “% inhibition of aggregation” value in series [3] (10 mg/kg orally) is -74%. Moreover, in series [4], the fatality result was “not a single fatality” and the toxicity result is “atoxic”. Also, the “soluble in DMSO to give a solution of” value in series [5] is 10%.
